# Test results from patent US5952301A, “Compositions and methods for enhancing intestinal function” (1149336 Ontario Inc., priority 1996, dated 1999).
# Values joined by “and” are separate entries in the source; they are usually repeats but may differ in a detail not shown here. Identical values can stand only once.
# Tests used:
# large intestine = assay: Co-administration of GLP-2 with IGF-1 or GH: large intestine mass (Example 2); assay type: in vivo, mice; details: for Large Intestine Mass: s.c. twice daily (GH once daily) for 10 days, sacrifice day 11, GLP-2 peptides 2.5 μg, IGF-1/LRIGF-1 50 μg, GH 25 μg per dose, CD1 female mice; for % Change Relative to PBS Control (large intestine) / Change in Intestine Mass Relative to Control (large intestine): same regimen; for Change in Intestine Mass Relative to Control (large intestine): relative to PBS control
# Source text: (§1) Forty-eight, six week old female CD1 mice (approx. 25 grams, obtained from Charles River Laboratories) were acclimatized in the animal facility for 1 week prior to the experiment. They were housed in plastic bottom, wire lid cages, maintained on a 12 hr light/dark cycle, and allowed chow and water, ad libitum throughout the study. Four days before starting the treatment the mice were weighed using a Mettler PJ300 scale and randomly allocated to 1 of 12 treatment groups. For the experiment, subcutaneous injections in the right hind quarter were given twice daily in the morning and evening for 10 days. However, Growth Hormone (GH) was administered only once a day in the morning. On day 10, the mice were fasted from 12 noon on. Body weight was also taken on day 5 and day 11.
# (§2) The treatment groups consisted of the following peptides and peptide combinations. The amount of peptide received per dose by each animal is marked in beside each entry.
# (§3) The peptides were weighed (Mettler AE166 scale), reconstituted and aliquoted on the day prior to the first injection. The injection volume, 0.5 ml, was constant through out the experiment using a 1/2 cc U-100 Insulin Syringe (Becton Dickinson and Company, N.J.). All peptide aliquots, except Protropin (GH), were kept at -20° C. and removed 60 minutes prior to injection to thaw. GH was kept at 4° C.
# (§4) Control mice (group 1) received the same volume (0.5 ml) of phosphate buffered saline (PBS-1x-137 mM NaCl, 2.7 mM KCl, 4.3 mM Na2HPO4, pH 7.3). Peptides [rat GLP-2] (5 μg/ml) and human [Gly 2] GLP-2 (5 μg/ml) were reconstituted in PBS. One microliter of 1 N NaOH was required to dissolve [Gly2]hGLP-2 in 1 ml.
# (§5) IGF recombinant peptides (IGF-1, Lot #FJF-103;Long R3IGF-1(LRIGF-1), Lot# HJF-A01 GroPep Pty Ltd., Australia) stock solutions were reconstituted in 10 mM HCl at a concentration of 1 mg/ml. To minimize the absorption of the peptide to the plastic surface, RIA Grade Bovine Serum Albumin (BSA) (BioLabs Lot 7943) was added to the PBS working solution (100 μg/ml BSA final concentration). Protropin (Growth hormone) (Lot C9009A2, Genentech Canada Inc., Burlington, ON) stock solution was reconstituted with Bacteriostatic water supplied in the kit. The working solution (50 μg/ml) was diluted in PBS (without BSA). Combination treatments of GH+rat GLP-2 and GH+[Gly 2]hGLP-2 were administered by mixing 0.25 mls of each peptide, which were taken up into the same syringe to maintain a consistent injection volume of 0.5 ml. All other combination treatments (for example, rGLP-2+IGF etc.) were initially made up as separate solutions, mixed together, and frozen down together as aliquots of a single mixture, to be administered as single 0.5 ml injections.
# (§6) Mice were sacrificed on day 11. Weight measurements were taken for the heart, kidneys, stomach, small intestine and large intestine. Small intestine length was also measured. Blood was taken via cardiac puncture and the plasma was frozen for future analysis. Tissues were also removed for histological analysis.
# small intestine [1] = assay: Co-administration of GLP-2 with IGF-1 or GH: small intestine mass (Example 2); assay type: in vivo, mice; details: for Small Intestine Mass: s.c. twice daily (GH once daily) for 10 days, sacrifice day 11, GLP-2 peptides 2.5 μg, IGF-1/LRIGF-1 50 μg, GH 25 μg per dose, CD1 female mice; for % Change Relative to PBS Control (small intestine) / Change in Intestine Mass Relative to Control (small intestine): same regimen; for Change in Intestine Mass Relative to Control (small intestine): relative to PBS control
# Source text: as §1, §2, §3, §4, §5, §6
# small intestine [2] = assay: Effect of rat GLP-2 on small intestine weight in mice (Example 1); assay type: in vivo; details: for Small Intestine Weight % body wt / Small Intestine Weight Ave: group average; for Small Intestine Weight % body wt / Small Intestine Weight Ave / Small Intestine Weight Day 10: 41.5 μg peptide per injection s.c. every 12 hours for 10 days, CD1 females; for Small Intestine Weight Day 10: single mice
# Description: This experiment was designed to investigate the effect of GLP-2 on small intestine growth. Mice were treated with human GLP-1, rat GLP-2, or no peptide, and the mass of the small intestine analyzed.
# For this experiment, rat GLP-2 and human GLP-1 (7-36 amide) were custom synthesized by application of the tBoc-based solid phase approach. […] The pH was then readjusted to about 7.0 by addition of an equal volume of IN NaOH […], and the solution volume was then adjusted to 10 mL by addition of distilled water. To prepare the formulation for injection, the 10 mL peptide solution and the 50 mL solution of 16% gelatin were combined with mixing, and aliquots for injection were drawn into a 0.5 mL insulin syringe. The same procedure was used to formulate the GLP-1, with the exception that no acid/base adjustment was necessary given its relative greater solubility in water.
# Three groups of six mice (8 week old, CD1 females from Charles River Laboratories) were treated as follows. Each mouse received injections for 10 days. The injections were delivered subcutaneously in a final volume of 16% gelatin, with 0.5 cc injected subcutaneously every 12 hours. Mice treated with GLP-1 or GLP-2 peptide received 41.5 μg of the respective peptide in each injection. Control mice received 0.5 cc of 16% gelatin solution, but no peptide. Mice were fed standard rat chow with free access to food and water, until 12 hours prior to sacrifice, at which time food was withheld, and water only was given. The weight of the small intestine was ascertained by excising the entire intestine, and removing the stomach (proximal end) and appendix/cecum/large intestine (distal end). The remaining small intestine was cleaned with saline to remove feces, and weighed.
Substance,Large Intestine Mass (large intestine),% Change Relative to PBS Control (large intestine) (large intestine),Change in Intestine Mass Relative to Control (large intestine) (large intestine),Small Intestine Mass (small intestine [1]),% Change Relative to PBS Control (small intestine) (small intestine [1]),Change in Intestine Mass Relative to Control (small intestine) (small intestine [1]),Small Intestine Weight % body wt (small intestine [2]),Small Intestine Weight Ave (small intestine [2]),Small Intestine Weight Day 10 (small intestine [2]),increase in the mass of small intestine relative to control group and GLP-1 group (small intestine [2]; about 2 mg/kg (about 500 nmole/kg) twice daily for 10 days)
"IGF-1: Insulin-Like Growth Factor-1, recombinant peptide, GroPep Pty Ltd.",0.262 g,-7%,0.021 g,1.158 g and 1.517 g,,,,,,
"[Gly 2] hGLP-2: Human GLP-2 having Gly substituted for Ala at position 2 (HGDGSFSDEMNTILDNLAARDFINWLIQTKITD; Glucagon-like peptide 2; UniProt P01275 146-178, looked up, variant A2G)",0.308 g,+9%,0.025 g,1.810 g,+75%,0.775 g,,,,
"hGH: Protropin (Growth hormone), Genentech Canada Inc. [reference compound]",0.260 g,-8%,0.023 g,1.230 g,+19%,0.195 g,,,,
human GLP-1 (7-36 amide) [reference compound],,,,,,,5.26 ± .25 % body wt,1.33 ± .04 gm,1.4 gm and 1.3 gm and 1.2 gm,
"rat GLP-2: rat Glucagon-like peptide-2, 33 amino acid peptide, custom synthesized by tBoc-based solid phase approach (HADGSFSDEMNTILDNLATRDFINWLIQTKITD; Glucagon-like peptide 2; UniProt P06883 146-178, looked up)",0.245 g,-13.10%,-0.038 g,1.066 g,+3%,0.031 g,8.12 ± .40 % body wt,2.08 ± .14 gm,1.8 gm and 2.3 gm and 2.4 gm,statistically significant (p-- 0.05) increase
